For the compound `COCC(C)Nc1cc(-c2ccnc(Nc3cccc(Cl)c3)c2)ccn1` (stereo not shown) [Compound A1.10, N*2′*-(3-Chloro-phenyl)-N*2*-(2-methoxy-1-methyl-ethyl)-[4,4′]bipyridinyl-2,2′-diamine], the melting point (commonly the temperature of the solid-liquid transition) was 110 °C.

Source of the values: patent US8389442B2, “N-phenyl-′(4-pyridyl)-azinyl!amine derivatives as plant protection agents” (Syngenta Crop Protection LLC, priority 2003, dated 2013).
